The term MIC denotes the lowest concentration that inhibits growth of the organism.

Converted amounts (≈) assume the structure as drawn.

The values that follow come from ChEMBL document CHEMBL5247680, “Design, Synthesis, and Biological Activity of Thioguanine-Modified Pleuromutilin Derivatives” (ACS Med Chem Lett, 2023).

Test [1] relates to Staphylococcus aureus. The test can be described thus: Selectivity ratio of MBC for antibacterial activity against Staphylococcus aureus to MIC for antibacterial activity against Staphylococcus aureus. The test is classed as functional.
The subject of test [2] is Staphylococcus epidermidis. The experiment in a line: Antibacterial activity against Methicillin-sensitive Staphylococcus epidermidis ATCC 12228 assessed as bacterial growth inhibition incubated for 20 to 24 hrs by microbroth serial dilution assay. In kind it is functional. As to conditions: time 20-24 hrs.
For test [3], the system named is Staphylococcus aureus. The experiment in a line: Antibacterial activity against Methicillin-resistant Staphylococcus aureus ATCC 43300 assessed as bacterial growth inhibition incubated for 20 to 24 hrs by microbroth serial dilution assay. In kind it is functional. As to conditions: time 20-24 hrs. A general note: Broth dilution looks for growth in wells or tubes with falling amounts of substance.

The test system of test [4] is Staphylococcus aureus. The test can be described thus: Antibacterial activity against Methicillin-resistant Staphylococcus aureus ATCC 33591 assessed as bacterial growth inhibition incubated for 20 to 24 hrs by microbroth serial dilution assay. In kind it is functional. As to conditions: time 20-24 hrs.
The subject of test [5] is Staphylococcus epidermidis. The experiment in a line: Antibacterial activity against Methicillin-resistant Staphylococcus epidermidis ATCC 51625 assessed as bacterial growth inhibition incubated for 20 to 24 hrs by microbroth serial dilution assay. The test is classed as functional. To be noted: time 20-24 hrs.
Test [6] has as its system Staphylococcus aureus. The test can be described thus: Antibacterial activity against Methicillin-sensitive Staphylococcus aureus ATCC 29213 assessed as bacterial growth inhibition incubated for 20 to 24 hrs by microbroth serial dilution assay.
In test [7] the test system is Staphylococcus epidermidis. The test can be described thus: Selectivity ratio of MBC for antibacterial activity against Methicillin-sensitive Staphylococcus epidermidis […] to MIC for antibacterial activity against Methicillin-sensitive Staphylococcus epidermidis […]. The test is classed as functional.
The subject of test [8] is Staphylococcus epidermidis. The test can be described thus: Selectivity ratio of MBC for antibacterial activity against Methicillin-resistant Staphylococcus epidermidis ATCC 51625 to MIC for antibacterial activity against Methicillin-resistant Staphylococcus epidermidis ATCC 51625. The test is classed as functional.
Test [9] deals with Staphylococcus aureus. The test can be described thus: Antibacterial activity against Staphylococcus aureus ATCC 25923 assessed as bacterial growth inhibition incubated for 20 to 24 hrs by microbroth serial dilution assay. In kind it is functional. To be noted: time 20-24 hrs.
The subject of test [10] is Staphylococcus aureus. The experiment in a line: Selectivity ratio of MBC for antibacterial activity against Methicillin-sensitive Staphylococcus aureus ATCC 29213 to MIC for antibacterial activity against Methicillin-sensitive Staphylococcus aureus ATCC 29213.
For test [11], the system named is Staphylococcus aureus. The test can be described thus: Selectivity ratio of MBC for antibacterial activity against Methicillin-resistant Staphylococcus aureus ATCC 33591 to MIC for antibacterial activity against Methicillin-resistant Staphylococcus aureus ATCC 33591. The test is classed as functional.

In the case of `C=C[C@]1(C)C[C@@H](OC(=O)CSc2nc(N)nc3c2ncn3C(=O)Nc2cccc(C(F)(F)F)c2)[C@@]2(C)C3C(=O)CC[C@@]3(CC[C@H]2C)[C@@H](C)[C@@H]1O` (stereo partly specified), the Ratio in test [1] is listed as over 4; in test [7] it was over 4; in [8], 4. For the same compound, the MIC in test [2] was 0.0156 µg/mL (≈ 0.0218 µM); in [3] it was 0.25 µg/mL (≈ 0.35 µM); in test [4] it was 0.25 µg/mL (≈ 0.35 µM); in test [5], 0.125 µg/mL (≈ 0.175 µM); in test [6], 0.125 µg/mL (≈ 0.175 µM); in test [9] it was 0.25 µg/mL (≈ 0.35 µM).

On to `C=C[C@]1(C)C[C@@H](OC(=O)CSc2nc(N)nc3c2ncn3C(=O)NCc2ccccc2OC)[C@@]2(C)C3C(=O)CC[C@@]3(CC[C@H]2C)[C@@H](C)[C@@H]1O` (stereo partly specified), for which the Ratio is 2 in test [10], over 4 in test [1], over 4 in [7] and 4 in test [11]. The MIC amounted to 0.0156 µg/mL (≈ 0.0226 µM) in test [2]; 0.0625 µg/mL (≈ 0.0905 µM) in test [3]; 0.125 µg/mL (≈ 0.181 µM) in [4]; 0.0625 µg/mL (≈ 0.0905 µM) in test [5]; 0.0625 µg/mL (≈ 0.0905 µM) in [6]; 0.125 µg/mL (≈ 0.181 µM) in test [9].

Turning to `C=C[C@]1(C)C[C@@H](OC(=O)CSc2nc(N)nc3c2ncn3C(=O)Nc2ccc(F)cc2)[C@@]2(C)C3C(=O)CC[C@@]3(CC[C@H]2C)[C@@H](C)[C@@H]1O` (stereo partly specified), the Ratio in test [10] is given as 2; in test [1], over 4; in test [7], over 4; in [8] it was 4. Also, the MIC in test [2] turned out to be 0.0156 µg/mL (≈ 0.0235 µM); in test [3] it was 0.125 µg/mL (≈ 0.188 µM); in [4] it was 0.125 µg/mL (≈ 0.188 µM); in test [5], 0.125 µg/mL (≈ 0.188 µM); in [6], 0.25 µg/mL (≈ 0.376 µM); in [9], 0.125 µg/mL (≈ 0.188 µM).

For the compound `C=C[C@]1(C)C[C@@H](OC(=O)CSc2nc(N)nc3c2ncn3C(=O)c2ccc(OC)cc2)[C@@]2(C)C3C(=O)CC[C@@]3(CC[C@H]2C)[C@@H](C)[C@@H]1O` (stereo partly specified), the Ratio in test [1] was over 4; in [7], over 4; in test [8], 4. In addition, the MIC in test [2] was under 0.0078 µg/mL; in [3] it was 0.125 µg/mL (≈ 0.189 µM); in test [4], 0.5 µg/mL (≈ 0.755 µM); in [5], 0.25 µg/mL (≈ 0.378 µM); in test [6], 0.5 µg/mL (≈ 0.755 µM); in [9], 0.25 µg/mL (≈ 0.378 µM).

In the case of `C=C[C@]1(C)C[C@@H](OC(=O)CSc2nc(N)nc3c2ncn3C(=O)Nc2ccccc2)[C@@]2(C)C3C(=O)CC[C@@]3(CC[C@H]2C)[C@@H](C)[C@@H]1O` (stereo partly specified), the Ratio in test [10] is recorded as 4; in test [1], over 4; in test [7] it was over 4. The MIC in test [2] was found to be 0.0156 µg/mL (≈ 0.0241 µM); in test [3], 0.0625 µg/mL (≈ 0.0966 µM); in [4] it was 0.125 µg/mL (≈ 0.193 µM); in test [5] it was 0.125 µg/mL (≈ 0.193 µM); in test [6] it was 0.125 µg/mL (≈ 0.193 µM); in [9], 0.125 µg/mL (≈ 0.193 µM).

Consider `C=C[C@]1(C)C[C@@H](OC(=O)CSc2nc(N)nc3c2ncn3C(=O)Nc2cccc(NC(=O)OC(C)(C)C)c2)[C@@]2(C)C3C(=O)CC[C@@]3(CC[C@H]2C)[C@@H](C)[C@@H]1O` (stereo partly specified), for which the Ratio in [10] was 2; in [1] it was over 4; in test [7] it was over 4; in [11], 4. The MIC in test [2] stood at 0.0156 µg/mL (≈ 0.0205 µM); in [3] it was 0.25 µg/mL (≈ 0.328 µM); in test [4] it was 0.25 µg/mL (≈ 0.328 µM); in test [5], 0.125 µg/mL (≈ 0.164 µM); in test [6] it was 0.25 µg/mL (≈ 0.328 µM); in [9], 0.25 µg/mL (≈ 0.328 µM).

Turning to `C=C[C@]1(C)C[C@@H](OC(=O)CSc2nc(N)nc3c2ncn3C(=O)CCc2ccccc2)[C@@]2(C)C3C(=O)CC[C@@]3(CC[C@H]2C)[C@@H](C)[C@@H]1O` (stereo partly specified), the Ratio is reported as over 4 in test [10], 4 in test [1] and over 4 in [7]. In addition, the MIC in test [2] is 0.0156 µg/mL (≈ 0.0236 µM); in [3] it was 0.125 µg/mL (≈ 0.189 µM); in test [4], 0.125 µg/mL (≈ 0.189 µM); in test [5] it was 0.125 µg/mL (≈ 0.189 µM); in test [6], 0.125 µg/mL (≈ 0.189 µM); in test [9] it was 0.25 µg/mL (≈ 0.379 µM).
